{
  "source": "patent US20140187587A1",
  "about": "“SYNERGISTIC FUNGICIDAL MIXTURES FOR FUNGAL CONTROL IN CEREALS” (Dow Agrosciences LLC, priority 2012, published 2014)",
  "key": {"[1]": {"tested_on": "Puccinia recondita (PUCCRT)", "assay": "3-day curative (3DC) test of fungicide mixtures vs. wheat brown rust", "format": "in vivo", "settings": "single active, wheat (Yuma) plants", "protocol": "(§1) For the mixture studies with the compound of Formula I: Treatments consisted of fungicides, including the compound of Formula I and fluxapyroxad. Technical grades of materials were dissolved in acetone to make stock solutions, which were then used to perform 4-fold dilutions in acetone for each individual fungicide component or for the two-way mixture. Desired fungicide rates were obtained after mixing dilutions with 9 volumes of water containing 110 parts per million (ppm) Triton X-100. The fungicide solutions (20 milliliters (mL)) were applied to 12 pots of plants using an automated booth sprayer, which utilized two 6218-1/4 JAUPM spray nozzles operating at 20 pounds per square inch (psi) set at opposing angles to cover both leaf surfaces. All sprayed plants were allowed to air dry prior to further handling. Control plants were sprayed in the same manner with a solvent blank.\nEvaluation of Curative Activity of Fungicide Mixtures vs. Wheat Brown Rust (Puccinia recondita; Bayer Code: PUCCRT).\nYuma wheat seedlings were grown as described above and inoculated with an aqueous spore suspension of Puccinia recondita 3 days prior to fungicide treatment (3DC). After inoculation, plants were placed in a dew room for 1 day to allow for infection to occur. The plants were then placed in the greenhouse for symptom development to occur, which in the case of PUCCRT typically required 7-10 days.\n(§2) When disease severity reached 50-100% on the control plants, infection levels were assessed on treated plants visually and scored on a scale of 0 to 100 percent. The percentage of disease control was then calculated using the ratio of disease on treated plants relative to control plants.\n(§3) The Colby equation was used to determine the fungicidal effects expected from the mixtures. (See Colby, S. R. Calculation of the synergistic and antagonistic response of herbicide combinations. Weeds 1967, 15, 20-22.)\n(§4) The following equation was used to calculate the expected activity of mixtures containing two active ingredients, A and B:\n(§5) A=observed efficacy of active component A at the same concentration as used in the mixture;\n(§6) B=observed efficacy of active component B at the same concentration as used in the mixture."}, "[2]": {"tested_on": "Septoria tritici (SEPTTR)", "assay": "1-day protectant (1DP) test of fungicide mixtures vs. leaf blotch of wheat", "format": "in vivo, Mycosphaerella graminicola; anamorph: Septoria tritici", "settings": "single active, wheat (Yuma) plants", "protocol": "as §1\nEvaluation of Curative and Protectant Activity of Fungicide Mixtures vs. Leaf Blotch of Wheat (Mycosphaerella graminicola; Anamorph: Septoria tritici; Bayer Code: SEPTTR).\nWheat plants (variety Yuma) were grown from seed in a greenhouse in plastic pots with a surface area of 27.5 square centimeters (cm^2) containing 50% mineral soil/50% soil-less Metro mix, with 8-12 seedlings per pot. The plants were utilized for testing when the first leaf was fully emerged, which typically occurred 7-8 days after planting. Test plants were inoculated with an aqueous spore suspension of Septoria tritici either (a) 3 days prior to fungicide treatments (3-day curative test, 3DC) or (b) 1 day after fungicide treatments (1-day protectant test, 1DP). After inoculation the plants were placed in a dew room from 1-3 days to allow for infection to occur. The plants were then placed in the greenhouse for symptom development to occur, which in the case of SEPTTR typically required 25-30 days.\nas §2, §3, §4, §5, §6"}},
  "data": [
    {"smiles": "Cn1cc(C(=O)Nc2ccccc2-c2cc(F)c(F)c(F)c2)c(C(F)F)n1", "note": "[Fluxapyroxad, 3-(difluoromethyl)-1-methyl-N-(3′,4′,5′-trifluorobiphenyl-2-yl)pyrazole-4-carboxamide]", "values": [
      {"measurement": "% DC Obs (percent disease control observed), PUCCRT 3DC", "setting": "[1]; application rate 0.1 ppm", "result": 0, "unit": "%"},
      {"measurement": "% DC Obs (percent disease control observed), PUCCRT 3DC", "setting": "[1]; application rate 0.39 ppm", "result": 0, "unit": "%"},
      {"measurement": "% DC Obs (percent disease control observed), PUCCRT 3DC", "setting": "[1]; application rate 1.56 ppm", "result": 86, "unit": "%"},
      {"measurement": "% DC Obs (percent disease control observed), PUCCRT 3DC", "setting": "[1]; application rate 6.25 ppm", "result": 100, "unit": "%"},
      {"measurement": "% DC Obs (percent disease control observed), SEPTTR 1DP", "setting": "[2]; application rate 0.1 ppm", "result": 0, "unit": "%"},
      {"measurement": "% DC Obs (percent disease control observed), SEPTTR 1DP", "setting": "[2]; application rate 0.39 ppm", "result": 0, "unit": "%"},
      {"measurement": "% DC Obs (percent disease control observed), SEPTTR 1DP", "setting": "[2]; application rate 1.56 ppm", "result": 0, "unit": "%"},
      {"measurement": "% DC Obs (percent disease control observed), SEPTTR 1DP", "setting": "[2]; application rate 6.25 ppm", "result": 94, "unit": "%"}
    ]},
    {"smiles": "COc1ccnc(C(=O)N[C@H]2COC(=O)[C@H](Cc3ccccc3)[C@@H](OC(=O)C(C)C)[C@H](C)OC2=O)c1OCOC(=O)C(C)C", "note": "[Compound I, (3S,6S,7R,8R)-8-benzyl-3-(3-((isobutyryloxy)methoxy)-4-methoxypicolinamido)-6-methyl-4,9-dioxo-1,5-dioxonan-7-yl isobutyrate]", "values": [
      {"measurement": "% DC Obs (percent disease control observed), PUCCRT 3DC", "setting": "[1]; application rate 0.1 ppm", "result": 2, "unit": "%"},
      {"measurement": "% DC Obs (percent disease control observed), PUCCRT 3DC", "setting": "[1]; application rate 0.39 ppm", "result": 0, "unit": "%"},
      {"measurement": "% DC Obs (percent disease control observed), PUCCRT 3DC", "setting": "[1]; application rate 1.56 ppm", "result": 12, "unit": "%"},
      {"measurement": "% DC Obs (percent disease control observed), PUCCRT 3DC", "setting": "[1]; application rate 6.25 ppm", "result": 98, "unit": "%"},
      {"measurement": "% DC Obs (percent disease control observed), SEPTTR 1DP", "setting": "[2]; application rate 0.1 ppm", "result": 0, "unit": "%"},
      {"measurement": "% DC Obs (percent disease control observed), SEPTTR 1DP", "setting": "[2]; application rate 0.39 ppm", "result": 0, "unit": "%"},
      {"measurement": "% DC Obs (percent disease control observed), SEPTTR 1DP", "setting": "[2]; application rate 1.56 ppm", "result": 2, "unit": "%"},
      {"measurement": "% DC Obs (percent disease control observed), SEPTTR 1DP", "setting": "[2]; application rate 6.25 ppm", "result": 93, "unit": "%"}
    ]}
  ]
}
